Molecules are shown by their SMILES.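 Exposure lasted 48 hours, with cells grown in 96-well plates and compounds tested at five concentrations. GI50 is the concentration that inhibits growth by half. Definition used: TGI = concentration required for complete inhibition of growth.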

Among the test systems are TK-10 renal; HT29 colon; CAKI-1 renal; NCI-H226 lung; KM12 colon; U251 CNS; K-562 leukemia; UACC-62 melanoma; MCF7 breast; SF-268 CNS.
Common to all, as to assay: NCI-60 cell line screen, 48 h

With `CCN(CC)CCC(CNc1c(C)cnc2cc(Cl)ccc12)c1ccc(Cl)c(Cl)c1` (stereo not drawn), the GI50 was 5.03 µM in the assay on TK-10 renal; 1.14 µM in the assay with HT29 colon; 2.59 µM in the assay with CAKI-1 renal; 13.5 µM with NCI-H226 lung; 4.34 µM in the assay on KM12 colon; 2.27 µM in the assay with U251 CNS. Moreover, the GI50 is 1.2 µM with K-562 leukemia, 2.18 µM in the assay on UACC-62 melanoma, 1.79 µM in the assay on MCF7 breast and 8.3 µM in the assay with SF-268 CNS. For the same compound, the TGI in the assay with TK-10 renal worked out at 17.1 µM; with HT29 colon, 10.1 µM; in the assay with CAKI-1 renal, 11.5 µM; with NCI-H226 lung, 30.8 µM; in the assay on KM12 colon, 17.7 µM; in the assay on U251 CNS it was 5.43 µM. Moreover, the TGI with K-562 leukemia is 3.51 µM; with UACC-62 melanoma, 4.77 µM; in the assay on MCF7 breast, 4.15 µM; in the assay with SF-268 CNS, 23.8 µM.

Regarding `COc1ccc2cn3c4ccc(O)cc4[nH]c(=O)c3c2c1`, the GI50 in the assay on TK-10 renal was 2.19 µM; in the assay on HT29 colon, 0.273 µM; in the assay with CAKI-1 renal it was 0.179 µM; with NCI-H226 lung it was 0.313 µM; in the assay on KM12 colon it was 0.0846 µM; in the assay with U251 CNS it was 0.153 µM. The GI50 with K-562 leukemia was 0.0516 µM; in the assay with UACC-62 melanoma it was 0.58 µM; in the assay on MCF7 breast, 0.236 µM; in the assay with SF-268 CNS, 0.217 µM. Moreover, the TGI in the assay on TK-10 renal was found to be 8.08 µM; in the assay on HT29 colon it was 2.85 µM; in the assay on CAKI-1 renal, 17 µM; with NCI-H226 lung, 22.3 µM; in the assay on KM12 colon it was 14.9 µM; in the assay with U251 CNS, 12.4 µM. The TGI with K-562 leukemia was determined as 4.48 µM; in the assay with UACC-62 melanoma, 18.1 µM; with MCF7 breast it was 14.6 µM; with SF-268 CNS, 17.5 µM.

In the case of `Nc1n[nH]c2cc(F)c([C@@H]3Nc4c(F)cc5[nH]ncc5c4[C@H]4C5CCC(C5)[C@@H]34)cc12` (stereo partly drawn), the GI50 is 2.27 µM in the assay with TK-10 renal; 0.119 µM in the assay with HT29 colon; 0.137 µM in the assay on CAKI-1 renal; 0.141 µM with NCI-H226 lung; 0.129 µM in the assay with KM12 colon; 0.127 µM in the assay with U251 CNS. For the same compound, the GI50 in the assay on K-562 leukemia is 0.11 µM; with UACC-62 melanoma, 0.162 µM; in the assay with MCF7 breast, 0.118 µM; in the assay with SF-268 CNS, 0.306 µM. The TGI in the assay on TK-10 renal came to 27.2 µM; in the assay with HT29 colon, 5.39 µM; in the assay on CAKI-1 renal it was 3.38 µM; in the assay on NCI-H226 lung, 1.41 µM; with KM12 colon it was 0.853 µM; with U251 CNS it was 5.7 µM. Further, the TGI in the assay with K-562 leukemia was found to be 12.7 µM; in the assay with UACC-62 melanoma, 6.77 µM; in the assay with MCF7 breast, 6.32 µM; with SF-268 CNS, 4.49 µM.

With `CCOc1cc(CCNC)c2c(ccc3ccc(OC)c(O)c32)c1OC`, the TGI is 32.7 µM with TK-10 renal; 30.7 µM in the assay with HT29 colon; 34 µM with CAKI-1 renal; 46.9 µM in the assay on NCI-H226 lung; 26.4 µM with KM12 colon; 32.2 µM in the assay with U251 CNS. Moreover, the TGI in the assay on K-562 leukemia was greater than 100 µM; in the assay with UACC-62 melanoma, 31.1 µM; in the assay with MCF7 breast, 22.4 µM; in the assay with SF-268 CNS it was 38.3 µM.

Consider `C#CCn1c2c(c3ccccc3c1=O)C(=O)c1ccccc1-2`, for which the TGI was 61.6 µM with TK-10 renal; 65.9 µM with HT29 colon; 24.3 µM with CAKI-1 renal; 79.3 µM with NCI-H226 lung; greater than 100 µM in the assay on KM12 colon; 42.5 µM in the assay on U251 CNS. For the same compound, the TGI is greater than 100 µM in the assay on K-562 leukemia, 57.1 µM with UACC-62 melanoma, 27.7 µM in the assay with MCF7 breast and 34.1 µM in the assay with SF-268 CNS.

Consider `CN1CCC(n2cnc(-c3ccc(F)cc3)c2-c2ccnc(Nc3ccccc3)n2)CC1`, for which the GI50 with TK-10 renal was 2.34 µM; in the assay on HT29 colon it was 3.95 µM; with CAKI-1 renal it was 1.79 µM; in the assay with NCI-H226 lung it was 18.3 µM; with KM12 colon it was 8.11 µM; with U251 CNS it was 6.7 µM. Also, the GI50 is 5.94 µM with K-562 leukemia, 6.54 µM in the assay with UACC-62 melanoma, 1.83 µM with MCF7 breast and 9.91 µM in the assay with SF-268 CNS. Besides, the TGI in the assay with TK-10 renal is greater than 25 µM; with HT29 colon it was greater than 25 µM; in the assay on CAKI-1 renal, greater than 15.3 µM; with NCI-H226 lung it was greater than 25 µM; with KM12 colon, greater than 25 µM; in the assay with U251 CNS, greater than 25 µM. The TGI in the assay with K-562 leukemia was greater than 25 µM; with UACC-62 melanoma, greater than 23 µM; in the assay with MCF7 breast, greater than 25 µM; with SF-268 CNS, greater than 25 µM.

With `COc1cc(NC(=O)c2cc3ccccc3cc2O)c(OC)cc1Cl`, the GI50 in the assay on TK-10 renal is 3.64 µM; with HT29 colon, 2.89 µM; in the assay with NCI-H226 lung, 1.45 µM; in the assay on KM12 colon it was 2.52 µM; with U251 CNS it was 1.87 µM; in the assay with K-562 leukemia, 1.84 µM. In addition, the GI50 was 1.35 µM in the assay with UACC-62 melanoma, 1.93 µM with MCF7 breast and 3.42 µM with SF-268 CNS. Besides, the TGI worked out at 7.7 µM in the assay with TK-10 renal; 19.8 µM in the assay on HT29 colon; 3.76 µM in the assay on CAKI-1 renal; 6.04 µM in the assay with NCI-H226 lung; 7.25 µM with KM12 colon; 5.23 µM in the assay on U251 CNS. The values for the TGI with UACC-62 melanoma, in the assay on MCF7 breast and in the assay with SF-268 CNS were 5.65 µM, 7.13 µM and 14.4 µM, respectively.
